# Test results published in ChEMBL document CHEMBL3885881, “DrugMatrix”.
# Organism: Rattus norvegicus
# Assay: DrugMatrix - Regimen: Daily Repeat
# Type: toxicity, organism-based, Sprague-Dawley
# Set-up: regimen Daily Repeat, gender Male, age 6-8 weeks
# Conditions: in vivo, iv, vehicle 100 % SALINE; for ABSOLUTE BASOPHIL / ABSOLUTE EOSINOPHIL / ABSOLUTE LYMPHOCYTE / ABSOLUTE MONOCYTE / ABSOLUTE SEGMENTED NEUTROPHIL / BASOPHIL / EOSINOPHIL / ERYTHROCYTE COUNT / HEMATOCRIT / HEMOGLOBIN / LEUKOCYTE COUNT / LYMPHOCYTE / MEAN CORPUSCULAR HEMOGLOBIN / MEAN CORPUSCULAR HEMOGLOBIN CONCENTRATION / MEAN CORPUSCULAR VOLUME / MONOCYTE / NEUTROPHIL / NUCLEATED RED BLOOD CELLS / PLATELET COUNT: tissue Blood; for ALANINE AMINOTRANSFERASE / ALBUMIN / ALKALINE PHOSPHATASE / ASPARTATE AMINOTRANSFERASE / BLOOD UREA NITROGEN / CARBON DIOXIDE / CHOLESTEROL / CREATINE PHOSPHOKINASE / CREATININE / GLUCOSE / LACTATE DEHYDROGENASE / LIPASE / PHOSPHORUS / POTASSIUM / SODIUM / TOTAL BILIRUBIN / TOTAL PROTEIN / URIC ACID: tissue Plasma
# [1] = 18 mg/kg, 120 h, dose level High, time 5 day
# [2] = […], 72 h, dose 7.5 mg/Kg, dose level Low, time 3 day
# [3] = […], 120 h, dose 7.5 mg/Kg, dose level Low, time 5 day
structure (smiles),measurement,setting,value
N=C(N)c1ccc(OCCCCCOc2ccc(C(=N)N)cc2)cc1 [PENTAMIDINE],ABSOLUTE BASOPHIL,[1],0 CELLS/uL
same,ABSOLUTE EOSINOPHIL,[1],0 CELLS/uL
same,ABSOLUTE LYMPHOCYTE,[1],15017 CELLS/uL
same,ABSOLUTE MONOCYTE,[1],444.33 CELLS/uL
same,ABSOLUTE SEGMENTED NEUTROPHIL,[1],972 CELLS/uL
same,BASOPHIL,[1],0%
same,EOSINOPHIL,[1],0%
same,ERYTHROCYTE COUNT,[1],6.15 x10E6/uL
same,HEMATOCRIT,[1],37.9%
same,HEMOGLOBIN,[1],14.2 G/DL
same,LEUKOCYTE COUNT,[1],16.43 x10E3/uL
same,LYMPHOCYTE,[1],91.33%
same,MEAN CORPUSCULAR HEMOGLOBIN,[1],23.07 pg
same,MEAN CORPUSCULAR HEMOGLOBIN CONCENTRATION,[1],37.5 G/DL
same,MEAN CORPUSCULAR VOLUME,[1],61.53 fL
same,MONOCYTE,[1],2.67%
same,NEUTROPHIL,[1],6%
same,NUCLEATED RED BLOOD CELLS,[1],0 /100WBC
same,PLATELET COUNT,[1],1455 x10E3/uL
same,ALANINE AMINOTRANSFERASE,[1],44.33 u/L
same,ALBUMIN,[1],4.3 G/DL
same,ALKALINE PHOSPHATASE,[1],288.33 u/L
same,ASPARTATE AMINOTRANSFERASE,[1],71 u/L
same,BLOOD UREA NITROGEN,[1],13.67 mg/dL
same,CARBON DIOXIDE,[1],26.67 mmol/L
same,CHOLESTEROL,[1],57 mg/dL
same,CREATINE PHOSPHOKINASE,[1],246.67 u/L
same,CREATININE,[1],0.22 mg/dL
same,GLUCOSE,[1],166.33 mg/dL
same,LACTATE DEHYDROGENASE,[1],175 u/L
same,LIPASE,[1],8.67 u/L
same,PHOSPHORUS,[1],11.6 mg/dL
same,POTASSIUM,[1],5.78 MEQ/L
same,SODIUM,[1],146.7 MEQ/L
same,TOTAL BILIRUBIN,[1],0.2 mg/dL
same,TOTAL PROTEIN,[1],6.13 G/DL
same,URIC ACID,[1],1.93 mg/dL
same,ABSOLUTE BASOPHIL,[2],0 CELLS/uL
same,ABSOLUTE EOSINOPHIL,[2],0 CELLS/uL
same,ABSOLUTE LYMPHOCYTE,[2],12540 CELLS/uL
same,ABSOLUTE MONOCYTE,[2],234 CELLS/uL
same,ABSOLUTE SEGMENTED NEUTROPHIL,[2],1759.33 CELLS/uL
same,BASOPHIL,[2],0%
same,EOSINOPHIL,[2],0%
same,ERYTHROCYTE COUNT,[2],5.88 x10E6/uL
same,HEMATOCRIT,[2],37.37%
same,HEMOGLOBIN,[2],14.03 G/DL
same,LEUKOCYTE COUNT,[2],14.53 x10E3/uL
same,LYMPHOCYTE,[2],86.67%
same,MEAN CORPUSCULAR HEMOGLOBIN,[2],23.9 pg
same,MEAN CORPUSCULAR HEMOGLOBIN CONCENTRATION,[2],37.53 G/DL
same,MEAN CORPUSCULAR VOLUME,[2],63.63 fL
same,MONOCYTE,[2],1.67%
same,NEUTROPHIL,[2],11.67%
same,NUCLEATED RED BLOOD CELLS,[2],0 /100WBC
same,PLATELET COUNT,[2],1241.67 x10E3/uL
same,ALANINE AMINOTRANSFERASE,[2],54.33 u/L
same,ALBUMIN,[2],4.63 G/DL
same,ALKALINE PHOSPHATASE,[2],393 u/L
same,ASPARTATE AMINOTRANSFERASE,[2],80.67 u/L
same,BLOOD UREA NITROGEN,[2],15.33 mg/dL
same,CARBON DIOXIDE,[2],24.67 mmol/L
same,CHOLESTEROL,[2],69.67 mg/dL
same,CREATINE PHOSPHOKINASE,[2],265 u/L
same,CREATININE,[2],0.17 mg/dL
same,GLUCOSE,[2],136.67 mg/dL
same,LACTATE DEHYDROGENASE,[2],184 u/L
same,LIPASE,[2],9 u/L
same,PHOSPHORUS,[2],10.97 mg/dL
same,POTASSIUM,[2],6.64 MEQ/L
same,SODIUM,[2],143.8 MEQ/L
same,TOTAL BILIRUBIN,[2],0.23 mg/dL
same,TOTAL PROTEIN,[2],5.83 G/DL
same,URIC ACID,[2],1.97 mg/dL
same,ABSOLUTE BASOPHIL,[3],0 CELLS/uL
same,ABSOLUTE EOSINOPHIL,[3],183 CELLS/uL
same,ABSOLUTE LYMPHOCYTE,[3],14369.67 CELLS/uL
same,ABSOLUTE MONOCYTE,[3],485 CELLS/uL
same,ABSOLUTE SEGMENTED NEUTROPHIL,[3],1795.67 CELLS/uL
same,BASOPHIL,[3],0%
same,EOSINOPHIL,[3],1%
same,ERYTHROCYTE COUNT,[3],5.98 x10E6/uL
same,HEMATOCRIT,[3],38.47%
same,HEMOGLOBIN,[3],14.17 G/DL
same,LEUKOCYTE COUNT,[3],16.83 x10E3/uL
same,LYMPHOCYTE,[3],85%
same,MEAN CORPUSCULAR HEMOGLOBIN,[3],23.7 pg
same,MEAN CORPUSCULAR HEMOGLOBIN CONCENTRATION,[3],36.83 G/DL
same,MEAN CORPUSCULAR VOLUME,[3],64.37 fL
same,MONOCYTE,[3],3%
same,NEUTROPHIL,[3],11%
same,NUCLEATED RED BLOOD CELLS,[3],0 /100WBC
same,PLATELET COUNT,[3],1425 x10E3/uL
same,ALANINE AMINOTRANSFERASE,[3],42.67 u/L
same,ALBUMIN,[3],4.57 G/DL
same,ALKALINE PHOSPHATASE,[3],364.67 u/L
same,ASPARTATE AMINOTRANSFERASE,[3],84.33 u/L
same,BLOOD UREA NITROGEN,[3],18.67 mg/dL
same,CARBON DIOXIDE,[3],27.67 mmol/L
same,CHOLESTEROL,[3],76.67 mg/dL
same,CREATINE PHOSPHOKINASE,[3],325 u/L
same,CREATININE,[3],0.23 mg/dL
same,GLUCOSE,[3],145 mg/dL
same,LACTATE DEHYDROGENASE,[3],461.33 u/L
same,LIPASE,[3],9 u/L
same,PHOSPHORUS,[3],11.17 mg/dL
same,POTASSIUM,[3],6.1 MEQ/L
same,SODIUM,[3],143.03 MEQ/L
same,TOTAL BILIRUBIN,[3],0.23 mg/dL
same,TOTAL PROTEIN,[3],6.3 G/DL
same,URIC ACID,[3],1.33 mg/dL
